From article PMC4373589 (Journal of medicinal chemistry, 2013)

Columns and labels:
mu opioid receptor (MOR) [1] = biological target: T1, mu opioid receptor (MOR) (Mus musculus, UniProt P42866); assay: MOR competitive radioligand binding; set-up: species or system mice
[2] = biological target: T2, delta opioid receptor (DOR) (Mus musculus, UniProt P32300); assay: DOR competitive radioligand binding; set-up: species or system mice
[3] = biological target: T3, kappa opioid receptor (KOR) (Mus musculus, UniProt P33534); assay: biochemical; type: binding, mice
T3 sequence (P33534 whole entry): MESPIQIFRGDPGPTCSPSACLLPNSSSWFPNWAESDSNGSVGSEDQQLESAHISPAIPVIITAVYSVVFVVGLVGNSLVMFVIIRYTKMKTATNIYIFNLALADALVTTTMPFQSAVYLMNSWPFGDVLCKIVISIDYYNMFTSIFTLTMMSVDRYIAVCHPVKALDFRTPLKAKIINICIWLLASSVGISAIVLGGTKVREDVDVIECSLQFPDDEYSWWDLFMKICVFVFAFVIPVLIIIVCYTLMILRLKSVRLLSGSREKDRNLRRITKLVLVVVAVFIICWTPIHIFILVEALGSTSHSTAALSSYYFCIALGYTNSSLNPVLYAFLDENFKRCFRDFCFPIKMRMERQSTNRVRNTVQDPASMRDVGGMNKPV

antinociception = assay: Warm-water tail flick assay, acute agonist effect; conditions: up to 30 mg/kg dose; s.c.
[4] = biological target: T2, delta opioid receptor (DOR); assay: DOR [35S]-GTPγS binding assay
[5] = biological target: T3, kappa opioid receptor (KOR); assay: KOR [35S]-GTPγS binding assay
morphine dependent mice = assay: Opioid withdrawal assay in morphine-pelleted mice; type: in vivo; conditions: for Escape jumps, effect of dose / Wet dog shakes, effect of dose: increasing dose up to 30 mg/kg s.c.; for Precipitated withdrawal symptoms, overall comparison: s.c.; for Wet dog shakes at 30 mg/kg: 30 mg/kg s.c., compared with 1 mg/kg naloxone and naltrexone
mu opioid receptor (MOR) [6] = biological target: T1, mu opioid receptor (MOR); assay: MOR [35S]-GTPγS functional assay; type: biochemical, mice
KOR = conditions: cited from earlier work
[7] = 1 mg/kg s.c., morphine-pelleted mice, counted over 20 minutes

T1 sequence (P42866 whole entry): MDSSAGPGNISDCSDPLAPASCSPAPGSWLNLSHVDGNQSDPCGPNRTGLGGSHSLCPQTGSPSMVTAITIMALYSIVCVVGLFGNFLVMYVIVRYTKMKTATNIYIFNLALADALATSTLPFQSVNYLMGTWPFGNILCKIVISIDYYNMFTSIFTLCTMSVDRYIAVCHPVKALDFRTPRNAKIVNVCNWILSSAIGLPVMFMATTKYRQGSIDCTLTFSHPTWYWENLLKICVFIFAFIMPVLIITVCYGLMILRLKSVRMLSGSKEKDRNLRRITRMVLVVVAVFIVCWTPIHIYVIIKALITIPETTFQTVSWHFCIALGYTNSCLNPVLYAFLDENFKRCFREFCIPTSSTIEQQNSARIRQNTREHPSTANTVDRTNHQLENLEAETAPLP
T2 sequence (P32300 whole entry): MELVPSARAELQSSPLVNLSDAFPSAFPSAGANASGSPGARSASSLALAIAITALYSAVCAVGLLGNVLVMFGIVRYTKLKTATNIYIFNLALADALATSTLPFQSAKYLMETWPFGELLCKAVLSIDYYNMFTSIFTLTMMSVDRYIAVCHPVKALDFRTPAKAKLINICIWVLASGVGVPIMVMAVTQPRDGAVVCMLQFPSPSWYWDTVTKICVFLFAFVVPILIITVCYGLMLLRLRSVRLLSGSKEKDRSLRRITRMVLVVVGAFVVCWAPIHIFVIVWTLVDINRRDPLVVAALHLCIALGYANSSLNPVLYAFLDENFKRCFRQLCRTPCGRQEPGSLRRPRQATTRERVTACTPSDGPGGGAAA

| Structure (SMILES) | Ki (mu opioid receptor (MOR) [1]) [nM] | Ki [2] [nM] | Ki [3] [nM] | also measured |
| --- | --- | --- | --- | --- |
| O=C(O[C@@]12CCC(=O)[C@@H]3Oc4c(O)ccc5c4[C@@]31CCN(CC1CC1)[C@@H]2C5)c1ccccn1 [Compound 2, 17-cyclopropylmethyl-4,5α-epoxy-3-hydroxy-14β-O-(pyridyl-2’-carboxy)morphinan-6-one] | 0.14 ± 0.03 | 117 ± 18 | 25.5 ± 6.5 | Selectivity to the MOR over the KOR and the DOR (mu opioid receptor (MOR) [1]): above 30 fold |
| O=C(O[C@@]12CCC(=O)[C@@H]3Oc4c(O)ccc5c4[C@@]31CCN(CC1CC1)[C@@H]2C5)c1cccnc1 [Compound 3, 17-cyclopropylmethyl-4,5α-epoxy-3-hydroxy-14β-O-(pyridyl-3’- carboxy)morphinan-6-one] | 1.59 ± 0.61 | 170 ± 12.6 | 47.8 ± 8.5 | Selectivity to the MOR over the KOR and the DOR (mu opioid receptor (MOR) [1]): above 30 fold |
| O=C(O[C@@]12CCC(=O)[C@@H]3Oc4c(O)ccc5c4[C@@]31CCN(CC1CC1)[C@@H]2C5)c1ccncc1 [Compound 4, 17-cyclopropylmethyl-4,5α-epoxy-3-hydroxy-14β-O-(pyridyl-4’-carboxy)morphinan-6-one] | 5.58 ± 1.34 | 405 ± 235 | 49.2 ± 20.4 | – |
| O=C(O[C@@]12CCC(=O)[C@@H]3Oc4c(O)ccc5c4[C@@]31CCN(CC1CC1)[C@@H]2C5)c1ccccc1 [Compound 5, 17-cyclopropylmethyl-4,5α-epoxy-3-hydroxy-14β-O-(benzoyloxy)morphinan-6-one] | 123 ± 38.2 | > 10000 | 586 ± 32.4 | Selectivity δ/μ (mu opioid receptor (MOR) [1]; Table 1, Ki ratio): >81; Selectivity δ/κ ([3]; Table 1, Ki ratio): >17 |
| O=C(O[C@@]12CCC(=O)[C@@H]3Oc4c(O)ccc5c4[C@@]31CCN(CC1CC1)[C@@H]2C5)c1cc2ccccc2cn1 [Compound 6, 17-cyclopropylmethyl-4,5α-epoxy-3-hydroxy-14β-O-(isoquinolyl-3’-carboxy)morphinan-6-one] | 68.4 ± 6 | > 10000 | > 10000 | Selectivity to the MOR over the KOR and the DOR (mu opioid receptor (MOR) [1]): above 30 fold; Selectivity δ/μ (mu opioid receptor (MOR) [1]; Table 1, Ki ratio): >146; Selectivity κ/μ (mu opioid receptor (MOR) [1]; Table 1, Ki ratio): >146 |
| O=C(O[C@@]12CCC(=O)[C@@H]3Oc4c(O)ccc5c4[C@@]31CCN(CC1CC1)[C@@H]2C5)c1ccc2ccccc2n1 [Compound 7, 17-cyclopropylmethyl-4,5α-epoxy-3-hydroxy-14β-O-(quinolyl-2’-carboxy)morphinan-6-one] | 1.44 ± 0.32 | 22.8 ± 19.5 | 67.2 ± 36.7 | – |
| O=C(O[C@@]12CCC(=O)[C@@H]3Oc4c(O)ccc5c4[C@@]31CCN(CC1CC1)[C@@H]2C5)c1cnc2ccccc2c1 [Compound 8, 17-cyclopropylmethyl-4,5α-epoxy-3-hydroxy-14β-O-(quinolyl-3’-carboxy)morphinan-6-one] | 2.69 ± 0.72 | 818 ± 507 | 148 ± 55.5 | Selectivity to the MOR over the KOR and the DOR (mu opioid receptor (MOR) [1]): above 30 fold |
| O=C(O[C@@]12CCC(=O)[C@@H]3Oc4c(O)ccc5c4[C@@]31CCN(CC1CC1)[C@@H]2C5)c1ccc2ccccc2c1 [Compound 9, 17-cyclopropylmethyl-4,5α-epoxy-3-hydroxy-14β-O-(2-naphthoyloxy)morphinan-6-one] | 225 ± 46.6 | 907 ± 193 | 46.6 ± 13.5 | – |
| O=C(N[C@@]12CCC(=O)[C@@H]3Oc4c(O)ccc5c4[C@@]31CCN(CC1CC1)[C@@H]2C5)c1ccccn1 [Compound 10, 17-cyclopropylmethyl-4,5α-epoxy-3-hydroxy-14β-N-[(2’-pyridyl)carboxamido]morphinan-6-one] | 1.51 ± 0.34 | 94.5 ± 6.5 | 0.36 ± 0.01 | Agonist effect in tail flick assay (antinociception): None of the compounds produced any significant agonist effect; EC50 [4]: 19.7 ± 7.4 nM; EC50 [5]: 1.74 ± 0.5 nM; Wet dog shakes at 3 mg/kg (morphine dependent mice; 3 mg/kg s.c.): minimal number of wet dog shakes; Wet dog shakes at 10 mg/kg (morphine dependent mice; 10 mg/kg s.c., same level at 30 mg/kg): dramatic increase; Wet dog shakes at high doses (morphine dependent mice; 10 and 30 mg/kg s.c., compared with 1 mg/kg naloxone): still lower than that of 1 mg/kg naloxone; Escape jumps, effect of dose (morphine dependent mice): clear decrease of escape jumps as its dose increased (not significantly though); Precipitated withdrawal symptoms, overall comparison (morphine dependent mice; morphine-pelleted mice): less severe withdrawal symptoms than naloxone at high doses |
| O=C(N[C@@]12CCC(=O)[C@@H]3Oc4c(O)ccc5c4[C@@]31CCN(CC1CC1)[C@@H]2C5)c1cccnc1 [Compound 11, 17-cyclopropylmethyl-4,5α-epoxy-3-hydroxy-14β-N-[(3’-pyridyl)carboxamido]morphinan-6-one] | 0.75 ± 0.28 | 39.9 ± 0.5 | 0.16 ± 0.01 | Agonist effect in tail flick assay (antinociception): None of the compounds produced any significant agonist effect; EC50 [4]: 3.2 ± 2 nM; EC50 [5]: 0.56 ± 0.06 nM; Wet dog shakes at 30 mg/kg (morphine dependent mice): resembled the effect of 1 mg/kg naloxone and naltrexone; Escape jumps, effect of dose (morphine dependent mice): dose-response increasing effect; Wet dog shakes, effect of dose (morphine dependent mice): dose-response increasing effect; Precipitated withdrawal symptoms, overall comparison (morphine dependent mice; morphine-pelleted mice): behaved similarly to naltrexone |
| O=C(N[C@@]12CCC(=O)[C@@H]3Oc4c(O)ccc5c4[C@@]31CCN(CC1CC1)[C@@H]2C5)c1ccncc1 [Compound 12, 17-cyclopropylmethyl-4,5α-epoxy-3-hydroxy-14β-N-[(4’-pyridyl)carboxamido]morphinan-6-one] | 0.82 ± 0.33 | 10.9 ± 1.3 | 0.33 ± 0.01 | – |
| O=C(N[C@@]12CCC(=O)[C@@H]3Oc4c(O)ccc5c4[C@@]31CCN(CC1CC1)[C@@H]2C5)c1ccccc1 [Compound 13, 17-cyclopropylmethyl-4,5α-epoxy-3-hydroxy-14β-N-(benzamido)morphinan-6-one] | 4.34 ± 0.7 | 57.3 ± 4.3 | 0.12 ± 0.001 | – |
| O=C(N[C@@]12CCC(=O)[C@@H]3Oc4c(O)ccc5c4[C@@]31CCN(CC1CC1)[C@@H]2C5)c1cc2ccccc2cn1 [Compound 14, 17-cyclopropylmethyl-4,5α-epoxy-3-hydroxy-14β-N-[(3’-isoquinolyl)carboxamido]-morphinan-6-one] | 3.5 ± 1.87 | 25.1 ± 1.8 | 0.27 ± 0.02 | Agonist effect in tail flick assay (antinociception): None of the compounds produced any significant agonist effect; EC50 [4]: 14.2 ± 1.9 nM; EC50 [5]: 2.75 ± 0.71 nM; Wet dog shakes at 30 mg/kg (morphine dependent mice): resembled the effect of 1 mg/kg naloxone and naltrexone; Escape jumps, effect of dose (morphine dependent mice): no significant dose-response effect; Wet dog shakes, effect of dose (morphine dependent mice): dose-response increasing effect; Precipitated withdrawal symptoms, overall comparison (morphine dependent mice; morphine-pelleted mice): behaved similarly to naltrexone |
| O=C(N[C@@]12CCC(=O)[C@@H]3Oc4c(O)ccc5c4[C@@]31CCN(CC1CC1)[C@@H]2C5)c1ccc2ccccc2n1 [Compound 15, 17-cyclopropylmethyl-4,5α-epoxy-3-hydroxy-14β-N-[(2’-quinolyl)carboxamido]morphinan-6-one] | 9.09 ± 4.94 | 15.1 ± 0.6 | 0.26 ± 0.01 | – |
| O=C(N[C@@]12CCC(=O)[C@@H]3Oc4c(O)ccc5c4[C@@]31CCN(CC1CC1)[C@@H]2C5)c1cnc2ccccc2c1 [Compound 16, 17-cyclopropylmethyl-4,5α-epoxy-3-hydroxy-14β-N-[(3’-quinolyl)carboxamido]morphinan-6-one] | 1.13 ± 0.25 | 1.48 ± 0.05 | 0.13 ± 0.02 | – |
| O=C(N[C@@]12CCC(=O)[C@@H]3Oc4c(O)ccc5c4[C@@]31CCN(CC1CC1)[C@@H]2C5)c1ccc2ccccc2c1 [Compound 17] | 6.22 ± 4.01 | 10.5 ± 1.4 | 0.33 ± 0.02 | – |
| O=C(Cc1ccccn1)N[C@@]12CCC(=O)[C@@H]3Oc4c(O)ccc5c4[C@@]31CCN(CC1CC1)[C@@H]2C5 [Compound 18, 17-cyclopropylmethyl-4,5α-epoxy-3-hydroxy-14β-N-[2’-(pyridin-2”-yl)acetamido]morphinan-6-one] | 0.29 ± 0.04 | 3.92 ± 0.12 | 0.19 ± 0.03 | MOR agonism / efficacy in [35S]-GTPγS binding assay (in words) (mu opioid receptor (MOR) [6]): MOR partial agonist with relatively high efficacy |
| O=C(CCc1ccccn1)N[C@@]12CCC(=O)[C@@H]3Oc4c(O)ccc5c4[C@@]31CCN(CC1CC1)[C@@H]2C5 [Compound 19, 17-cyclopropylmethyl-4,5α-epoxy-3-hydroxy-14β-N-[3’-(pyridin-2”-yl)propanamido]morphinan-6-one] | 0.32 ± 0.04 | 9.1 ± 0.5 | 0.17 ± 0.02 | MOR agonism / efficacy in [35S]-GTPγS binding assay (in words) (mu opioid receptor (MOR) [6]): low efficacy MOR partial agonists |
| O=C(CNC(=O)c1ccccn1)N[C@@]12CCC(=O)[C@@H]3Oc4c(O)ccc5c4[C@@]31CCN(CC1CC1)[C@@H]2C5 [Compound 20, 17-cyclopropylmethyl-4,5α-epoxy-3-hydroxy-14β-N-{2’-[(pyridin-2”-yl)carboxamido]acetamido}morphinan-6-one] | 0.3 ± 0.01 | 0.37 ± 0.04 | 0.14 ± 0.01 | MOR agonism / efficacy in [35S]-GTPγS binding assay (in words) (mu opioid receptor (MOR) [6]): low efficacy MOR partial agonists |
| Oc1cccc2c1O[C@H]1CCC[C@H]3CN(CC4CC4)CC[C@@]231 [LTC-274, (-)-3-cyclopropylmethyl-2,3,4,4α,5,6,7,7α-octahydro-1H-benzofuro[3,2-e]isoquinolin-9-ol] | – | – | – | Emax (KOR partial agonist) (KOR): 23% |
| O=C1CC[C@@]2(O)[C@H]3Cc4ccc(O)c5c4[C@@]2(CCN3CC2CC2)[C@H]1O5 [NTX, naltrexone, reference compound] | – | – | – | Escape jumps (morphine dependent mice; [7]): over twenty times; Wet dog shakes (morphine dependent mice; [7]): above seven times |
